Reference: PMC8518066, “Efficient Entropy‐Driven Inhibition of Dipeptidyl Peptidase III by Hydroxyethylene Transition‐State Peptidomimetics” (Chemistry (Weinheim an Der Bergstrasse, Germany), 2021)
Changes are numbered by the printed parent chain. Like-named read-outs stand apart in the source and are kept apart here.

What was measured:
[1] = tested on: Mammalian DPP3; design: method as in PMID 7931295, PMID 9425109; details: cited from earlier work
[2] = target: T1, hDPP3 (Homo sapiens, UniProt Q9NY33); assay: Fluorescence-based competitive enzyme inhibition assay (degradation of H-Arg-Arg-βNA substrate); format: biochemical; details: for IC50: hDPP3, H-Arg-Arg-βNA substrate, 37 °C, pH 8.0
T1 construct: His6 (cleaved yes); made in house; host or cells: E. coli BL21-CodonPlus (DE3) RIL
T1 sequence (Q9NY33 1-726): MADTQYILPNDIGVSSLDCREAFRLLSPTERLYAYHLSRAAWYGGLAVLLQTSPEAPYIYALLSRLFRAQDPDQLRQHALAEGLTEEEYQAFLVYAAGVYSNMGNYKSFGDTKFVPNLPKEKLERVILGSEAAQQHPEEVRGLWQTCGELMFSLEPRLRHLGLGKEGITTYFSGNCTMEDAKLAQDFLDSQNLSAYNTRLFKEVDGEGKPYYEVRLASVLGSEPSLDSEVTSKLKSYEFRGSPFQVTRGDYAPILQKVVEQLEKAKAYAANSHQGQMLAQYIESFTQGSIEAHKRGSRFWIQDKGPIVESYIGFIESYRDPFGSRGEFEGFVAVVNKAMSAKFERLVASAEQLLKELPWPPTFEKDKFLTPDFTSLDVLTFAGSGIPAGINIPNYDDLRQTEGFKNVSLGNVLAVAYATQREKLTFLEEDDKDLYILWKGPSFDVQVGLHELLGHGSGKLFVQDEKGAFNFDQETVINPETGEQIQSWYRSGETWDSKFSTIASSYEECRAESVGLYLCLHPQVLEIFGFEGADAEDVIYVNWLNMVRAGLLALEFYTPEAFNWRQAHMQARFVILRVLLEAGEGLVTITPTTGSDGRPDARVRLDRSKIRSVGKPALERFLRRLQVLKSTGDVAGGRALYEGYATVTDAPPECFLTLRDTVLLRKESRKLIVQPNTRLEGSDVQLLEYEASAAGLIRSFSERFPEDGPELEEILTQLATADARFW

[3] = tested on: DPP3 in mouse brain homogenate; assay: Ex vivo DPP3 inhibition in mouse brain homogenate; format: biochemical; details: Figure SI1
[4] = target: T2, hDPP3 (inactive variant E451A) (Homo sapiens, UniProt Q9NY33, E451A); assay: Isothermal titration calorimetry (ITC); format: binding; details: mean of three independent measurements; for Kd: hDPP3 E451A, 298 K
T2 construct: His6 (cleaved yes); made in house; host or cells: E. coli BL21-CodonPlus (DE3) RIL
T2 sequence (Q9NY33 1-726 E451A): T1 sequence (Q9NY33 1-726) with E451A

[5] = target: T1, hDPP3; assay: Thermal shift assay (Thermofluor); format: binding; details: 10 µM hDPP3, 50 µM HER
[6] = target: T1, hDPP3; assay: Time-dependent inhibition of hDPP3 by tynorphin and HER; format: biochemical; details: inhibitor at 5 times IC50, room temperature, 0-24 h
[7] = tested on: placental DPP3; design: method as in PMID 9711218; details: placental DPP3, H-Arg-Arg-βNA substrate; cited from earlier work

Cc1ccc(S(=O)(=O)N[C@@H](Cc2ccccc2)C(=O)CCl)cc1 [TPCK, tosyl‐phenylalanyl chloromethyl ketone]
inhibition of mammalian DPP3 [1]: significantly inhibited

CC(C)[C@H](NC(=O)[C@@H](N)C(C)(C)C)[C@H](O)C[C@@H](Cc1ccccc1)C(=O)N1CCCC[C@H]1C(=O)N[C@@H](Cc1c[nH]c2ccccc12)C(=O)O [37 b]
melting point: 164 to 166 °C

CC(C)[C@H](N)C(=O)N[C@@H](C(C)C)[C@H](O)C[C@@H](Cc1ccccc1)C(=O)N1CCCC[C@H]1C(=O)N[C@@H](Cc1c[nH]c2ccccc12)C(=O)O [37 a]
melting point: 160 to 162 °C
IC50 [2]: 34.4 µM

CC(C)[C@H](N)C(=O)N[C@@H](C(C)C)[C@H](O)C[C@@H](Cc1ccc(O)cc1)C(=O)N1CCC[C@H]1C(=O)N[C@@H](Cc1c[nH]c2ccccc12)C(=O)O
melting point: 172 to 174 °C

COC(=O)[C@H](Cc1c[nH]c2ccccc12)NC(=O)[C@@H]1CCCN1C(=O)[C@H](Cc1ccc(O)cc1)C[C@@H](O)[C@@H](NC(=O)[C@@H](N)C(C)C)C(C)C [compound 32]
melting point: 148 to 150 °C
IC50 [2]: 17.9 µM

CC(C)C(N)C(=O)NC(C(C)C)C(O)CC(Cc1ccccc1)C(=O)N1CCCC1C(=O)NC(Cc1c[nH]c2ccccc12)C(=O)O (stereo not shown) [HER]
inhibition of DPP3 in mouse brain homogenate [3]: efficiently inhibit DPP3 in mouse brain homogenate without losing much of its potency
melting point: 148 to 152 °C
potency relative to SHE (IC50 ratio) ([2]; HER versus SHE): 7 fold
IC50 [2]: 13.8 µM
Kd [4]: 11 µM
-TΔS [4]: -16.0 kcal/mol
ΔH [4]: 10.7 kcal/mol
Melting temperature (Tm) of hDPP3+HER ([5]; t=0 h of incubation): 57.5 °C
Melting temperature (Tm) of hDPP3+HER ([5]; t=24 h of incubation): 57 °C
time-dependent inhibition of hDPP3 (stability against the peptidase) [6]: efficiently inhibit the activity over a period of 24 h

CC1C(=O)c2cc(O)c3c(c2C(O)C1O)C(=O)c1cccc(O)c1-3 (stereo not shown) [B, fluostatins A and B]
IC50 [7]: 74 µM

tynorphin [reference compound]
time-dependent inhibition of hDPP3 (stability against the peptidase) [6]: lost its efficacy within the first hour

O=S(=O)(F)Cc1ccccc1 [PMSF, phenylmethanesulfonylfluoride]
inhibition of mammalian DPP3 [1]: significantly inhibited

CC(C)[C@H](N)C(=O)N[C@@H](C(C)C)[C@H](O)C[C@@H](Cc1ccc(F)cc1)C(=O)N1CCC[C@H]1C(=O)N[C@@H](Cc1c[nH]c2ccccc12)C(=O)O
melting point: 168 to 170 °C

Cc1ccc(C[C@H](C[C@@H](O)[C@@H](NC(=O)[C@@H](N)C(C)C)C(C)C)C(=O)N2CCC[C@H]2C(=O)N[C@@H](Cc2c[nH]c3ccccc23)C(=O)O)cc1
melting point: 160 to 162 °C

Cc1cc(=O)c2c(cc(O)c3c4c(O)cccc4c(=O)c32)c1=O [fluostatins A]
IC50 [7]: 1.44 µM

O=c1oc(Cl)c(Cl)c2ccccc12 [DCI, 3,4‐dichloroisocoumarin]
inhibition of mammalian DPP3 ([1]; covalently binding serine peptidase inhibitors): significantly inhibited

CC(C)[C@H](N)C(=O)N[C@@H](C(C)C)[C@@H](O)C[C@@H](Cc1ccccc1)C(=O)N1CCC[C@H]1C(=O)N[C@@H](Cc1c[nH]c2ccccc12)C(=O)O [SHE]
IC50 [2]: 98.5 µM
Kd [4]: 23 µM
-TΔS [4]: -8.1 kcal/mol
ΔH [4]: 2.3 kcal/mol
